Here are results for eight molecules from ChEMBL document CHEMBL1139370, “Discovery of 1-[9-(4-chlorophenyl)-8-(2-chlorophenyl)-9H-purin-6-yl]-4-ethylaminopiperidine-4-carboxylic acid amide hydrochloride (CP-945,598), a novel, potent, and selective cannabinoid type 1 receptor antagonist” (J Med Chem, 2009).

Calls of active or inactive are those of the source. No cut-off for these calls is given here.

Data set [1] can be described thus: Thermodynamic solubility in 0.1 M phosphate buffered saline at pH 6.5 by reversed phase HPLC. Particulars: buffer. It is filed as physicochemical.
Data set [2] is described as follows: Metabolic stability in human liver microsomes assessed as intrinsic clearance. Type of data set: ADME, Microsome. (In general: Microsomes from liver hold many membrane-bound enzymes, among them those of drug oxidation.)
The target in data set [3] is T1, Cannabinoid receptor 1 (Homo sapiens, UniProt P21554). The experiment in a line: biochemical. Type of data set: cell-based, HEK293.
T1 sequence (P21554 whole entry): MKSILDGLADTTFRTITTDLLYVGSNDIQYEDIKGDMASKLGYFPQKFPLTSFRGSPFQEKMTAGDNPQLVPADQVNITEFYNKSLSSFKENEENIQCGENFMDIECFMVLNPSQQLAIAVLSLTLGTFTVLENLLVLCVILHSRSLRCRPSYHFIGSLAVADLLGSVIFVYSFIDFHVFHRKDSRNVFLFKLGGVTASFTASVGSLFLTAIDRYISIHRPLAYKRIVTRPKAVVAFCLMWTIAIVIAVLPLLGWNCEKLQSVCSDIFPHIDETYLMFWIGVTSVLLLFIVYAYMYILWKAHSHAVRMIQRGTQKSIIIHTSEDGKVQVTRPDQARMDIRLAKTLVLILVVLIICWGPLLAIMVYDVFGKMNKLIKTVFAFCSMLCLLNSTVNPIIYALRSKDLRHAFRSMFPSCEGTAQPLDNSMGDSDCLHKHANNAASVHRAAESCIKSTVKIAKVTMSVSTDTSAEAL
A short description of data set [4]: Metabolic stability in rat liver microsomes assessed as intrinsic clearance. Type of data set: ADME, Microsome.
Data set [5] is described as follows: Lipophilicity, log D of the compound. It is filed as physicochemical. Particulars: octanol/water.
Data set [6] is described as follows: Thermodynamic solubility in USP simulated gastric fluid at pH 1.2 by reversed phase HPLC. It is filed as physicochemical. Particulars: simulated gi fluid.
In data set [7] the target is Cannabinoid receptor 1 (Rattus norvegicus, UniProt P20272). Kind of data set: Displacement of [3H]SR141716A from CB1 receptor in rat brain. Type of data set: tissue-based.
Chain of Cannabinoid receptor 1 (Rattus norvegicus, UniProt P20272) (P20272 whole entry): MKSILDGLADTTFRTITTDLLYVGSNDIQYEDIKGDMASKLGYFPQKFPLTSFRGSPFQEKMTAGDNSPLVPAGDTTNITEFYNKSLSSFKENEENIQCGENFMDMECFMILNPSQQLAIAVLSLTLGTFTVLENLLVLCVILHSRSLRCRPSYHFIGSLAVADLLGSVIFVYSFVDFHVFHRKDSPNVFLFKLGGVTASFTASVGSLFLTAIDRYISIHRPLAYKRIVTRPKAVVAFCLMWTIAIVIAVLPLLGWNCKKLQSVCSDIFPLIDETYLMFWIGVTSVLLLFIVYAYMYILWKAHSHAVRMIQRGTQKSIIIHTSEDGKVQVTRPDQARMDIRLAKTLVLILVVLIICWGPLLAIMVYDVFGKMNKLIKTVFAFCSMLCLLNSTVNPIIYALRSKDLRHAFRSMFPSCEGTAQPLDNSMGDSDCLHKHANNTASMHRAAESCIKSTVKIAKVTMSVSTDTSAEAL
Data set [8] concerns the target T1, Cannabinoid receptor 1. The experiment in a line: Antagonist activity against human CB1 receptor expressed in CHO-K1 cells by [35S]GTPgamma binding assay. It is filed as functional, cell-based.
The test system of a further data set is Rattus norvegicus. Kind of data set: Anorectic activity in Sprague-Dawley rat assessed as reduction in food intake at 10 mg/kg, po measured at 10 mins interval for 2 hrs by fast-induced refeeding assay relative to control. It is filed as functional. Also noted: scale not given: the % may be the effect or the level left.
For data set [9], the system named is Mus musculus. Kind of data set: Reversal of CP-55940-induced analgesia in ICR mouse at 10 mg/kg, sc pretreated 15 mins before CP-55940 challenge measured 45 mins post challenge by hot plate method. Particulars: route subcutaneous. It is filed as functional. On the technique in general: Hot-plate and tail-flick tests time the reaction to a heat stimulus.
In data set [10] the test system is Mus musculus. Kind of data set: Reversal of CP-55940-induced hypothermia in ICR mouse at 10 mg/kg, sc pretreated 15 mins before CP-55940 challenge measured 65 mins post challenge. It is filed as functional. Particulars: route subcutaneous.
The target in data set [11] is Voltage-gated inwardly rectifying potassium channel KCNH2 (Homo sapiens, UniProt Q12809). Kind of data set: Inhibition of human ERG.
Chain of Voltage-gated inwardly rectifying potassium channel KCNH2 (Q12809 whole entry): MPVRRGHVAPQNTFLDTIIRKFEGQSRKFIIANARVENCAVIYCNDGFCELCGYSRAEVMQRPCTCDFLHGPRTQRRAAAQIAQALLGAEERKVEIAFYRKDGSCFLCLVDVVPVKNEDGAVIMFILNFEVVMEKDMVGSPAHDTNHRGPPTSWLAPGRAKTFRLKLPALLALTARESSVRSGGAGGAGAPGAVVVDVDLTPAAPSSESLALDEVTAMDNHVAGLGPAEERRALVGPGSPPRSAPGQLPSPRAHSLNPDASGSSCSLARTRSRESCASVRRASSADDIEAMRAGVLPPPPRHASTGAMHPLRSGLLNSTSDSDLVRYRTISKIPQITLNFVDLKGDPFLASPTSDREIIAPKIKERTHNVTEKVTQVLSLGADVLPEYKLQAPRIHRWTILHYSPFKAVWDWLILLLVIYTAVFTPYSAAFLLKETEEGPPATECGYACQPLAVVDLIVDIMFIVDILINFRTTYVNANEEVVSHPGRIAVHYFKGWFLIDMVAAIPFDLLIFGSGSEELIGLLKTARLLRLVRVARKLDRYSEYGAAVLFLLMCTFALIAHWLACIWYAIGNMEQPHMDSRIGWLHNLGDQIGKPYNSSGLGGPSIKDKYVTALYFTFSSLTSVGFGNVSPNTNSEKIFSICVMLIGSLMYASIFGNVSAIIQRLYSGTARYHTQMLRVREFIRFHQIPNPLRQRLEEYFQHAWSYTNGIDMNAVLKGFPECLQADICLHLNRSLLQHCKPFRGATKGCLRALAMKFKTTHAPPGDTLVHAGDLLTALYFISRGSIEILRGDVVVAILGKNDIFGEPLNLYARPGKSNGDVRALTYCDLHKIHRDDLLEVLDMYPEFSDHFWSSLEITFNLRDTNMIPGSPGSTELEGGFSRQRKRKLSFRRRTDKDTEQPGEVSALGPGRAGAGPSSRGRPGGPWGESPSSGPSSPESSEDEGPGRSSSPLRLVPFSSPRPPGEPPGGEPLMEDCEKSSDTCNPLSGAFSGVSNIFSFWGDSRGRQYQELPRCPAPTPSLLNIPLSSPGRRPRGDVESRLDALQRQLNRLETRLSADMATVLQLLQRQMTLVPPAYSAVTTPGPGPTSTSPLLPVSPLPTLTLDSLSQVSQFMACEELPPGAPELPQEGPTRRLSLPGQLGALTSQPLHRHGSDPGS
A short description of data set [12]: Inhibition of P-gp by cell-based calcein-acetoxymethyl ester assay.
Data set [13] relates to Mus musculus. Kind of data set: Reversal of CP-55940-induced locomotor activity in ICR mouse at 10 mg/kg, sc pretreated 15 mins before CP-55940 challenge measured 25 mins post challenge. It is filed as functional, organism-based. Further details: dose 10 mg/kg.
Data set [14] can be described thus: Inhibition of P-gp assessed as ATP turnover at […] by cell-based ATPase assay.
Data set [15] is described as follows: Induction of P-gp-mediated efflux in mdr1a/1b knockout mouse model.
In data set [16] the test system is Mus musculus. Kind of data set: Reversal of CP-55940-induced catalepsy in ICR mouse at 10 mg/kg, sc pretreated 15 mins before CP-55940 challenge measured 90 mins post challenge. Also noted: dose 10 mg/kg. It is filed as functional, organism-based.

Usually CLint scaled stands for the capacity of the preparation to metabolise the compound, expressed as a volume cleared per time. As a reminder, the Ki is the equilibrium dissociation constant of an inhibitor or competing ligand from its target. The logD is the decadic logarithm of the distribution of all forms, ionised or not, between an organic phase and buffer at a given pH. `Clc1ccc(-n2c(-c3ccc(Cl)cc3Cl)nc3c(NC4CCCCC4)ncnc32)cc1`: the Thermodynamic solubility was under 0.1 ugA/ml in [1] and 4.1 ugA/ml in data set [6]. In addition, the CLint scaled in data set [2] came to 1680 L/h/kg; in data set [4], 1440 L/h/kg. Moreover, the Ki on Cannabinoid receptor 1 [3] came out at 7.1 nM; at Cannabinoid receptor 1 [7], 12 nM; on Cannabinoid receptor 1 [8] it was 1.5 nM. In [5], this molecule had a logD of 6.3.

The IC50 is the concentration that inhibits the measured activity by half. With `Clc1ccc(-n2c(-c3ccc(Cl)cc3Cl)nc3c(N4CCCCC4)ncnc32)cc1`, the Activity was 6% with Rattus norvegicus, 72% with Mus musculus [9] and 29% in the data set on Mus musculus [10]. Further, the Thermodynamic solubility was under 0.1 ugA/ml in data set [1] and 3.5 ugA/ml in data set [6]. In addition, the values for the CLint scaled in data set [2] and in data set [4] were 1680 L/h/kg and 4620 L/h/kg, respectively. In addition, the results for the Ki at Cannabinoid receptor 1 [3], at Cannabinoid receptor 1 [7] and at Cannabinoid receptor 1 [8] were 6.1 nM, 4.2 nM and 1.7 nM, respectively. This molecule also registered a log distribution coefficient (logD) in data set [5] of 5.9. This molecule registered a half-inhibitory concentration (IC50) in data set [11] of over 3000 nM.

Turning to `Cc1c(C(=O)NN2CCCCC2)nn(-c2ccc(Cl)cc2Cl)c1-c1ccc(Cl)cc1` [RIMONABANT], the CLint scaled in [4] came to 540 L/h/kg.

Consider `CCNC1(C(N)=O)CCN(c2ncnc3c2nc(-c2ccccc2Cl)n3-c2ccc(Cl)cc2)CC1` [OTENABANT], for which the results for the IC50 in [12] and in [11] were 15000 nM and over 3000 nM, respectively. In addition, the Activity in the data set on Rattus norvegicus is 54%; in the data set with Mus musculus [9], 85%; with Mus musculus [10], 73%. The Thermodynamic solubility in data set [1] was 1.3 ugA/ml; in [6], 291 ugA/ml. In addition, the outcome (with Mus musculus [13]; in [15]; in the data set on Mus musculus [16]) was Active. Further, the outcome in data set [14] was inactive. The intrinsic clearance (CLint scaled) in data set [2] worked out at 44.4 L/h/kg; in [4], 72 L/h/kg. The molecule also returned a pH-dependent lipophilicity (logD) in data set [5] of 4. Also, at Cannabinoid receptor 1 [7], the Ki came to 2.8 nM.

As to `Clc1ccc(-n2c(-c3ccccc3Cl)nc3c(N4CCCCC4)ncnc32)cc1`, the Thermodynamic solubility in data set [1] was under 0.1 µgA/ml; in [6], 8.8 ugA/ml. Also, the values for the CLint scaled in [2] and in data set [4] were 186 L/h/kg and 516 L/h/kg, respectively. For the same molecule, the Ki at Cannabinoid receptor 1 [3] was 2.3 nM; on Cannabinoid receptor 1 [7], 2.1 nM; at Cannabinoid receptor 1 [8], 1.1 nM. Also, in data set [5], the pH-dependent lipophilicity (logD) worked out at 5.4.

On to `Clc1ccc(-n2c(-c3ccc(Cl)cc3Cl)nc3c(NN4CCCCC4)ncnc32)cc1`, for which the Thermodynamic solubility in [1] is 1.4 ugA/ml; in [6] it was 161 ugA/ml. The results for the intrinsic clearance (CLint scaled) in data set [2] and in data set [4] were 102 L/h/kg and 246 L/h/kg, respectively. Besides, the inhibition constant (Ki) on Cannabinoid receptor 1 [3] came out at 7.4 nM; at Cannabinoid receptor 1 [7], 3.6 nM; on Cannabinoid receptor 1 [8], 1.7 nM. Also, the log distribution coefficient (logD) in data set [5] is 5.3. The molecule further gave an IC50 in data set [11] of 2700 nM.

On to `CN1CCN(c2ncnc3c2nc(-c2ccccc2Cl)n3-c2ccc(Cl)cc2)CC1`, for which the values for the Thermodynamic solubility in data set [1] and in data set [6] were 0.33 ugA/ml and 1290 ugA/ml, respectively. Further, the figures for the intrinsic metabolic clearance (CLint scaled) in data set [2] and in [4] were 18 L/h/kg and 90 L/h/kg, respectively. This molecule yielded a logD in [5] of 4.1. The molecule further returned an inhibition constant (Ki) on Cannabinoid receptor 1 [7] of 24 nM. In addition, the half-maximal inhibitory concentration (IC50) in [11] was 630 nM.

Turning to `CN1CCN(c2ncnc3c2nc(-c2ccc(Cl)cc2Cl)n3-c2ccc(Cl)cc2)CC1`, the Activity in the data set on Rattus norvegicus is on record as 25%; in the data set on Mus musculus [9], 74%; with Mus musculus [10] it was 4%. Moreover, the Thermodynamic solubility was 0.7 ugA/ml in data set [1] and 4930 ugA/ml in data set [6]. The intrinsic clearance (CLint scaled) in data set [2] was 44.4 L/h/kg; in [4] it was 354 L/h/kg. In addition, the Ki on Cannabinoid receptor 1 [3] was found to be 5.2 nM; on Cannabinoid receptor 1 [7], 5.9 nM; at Cannabinoid receptor 1 [8], 1.5 nM. Also, the logD in data set [5] is 4.8. This molecule also showed a concentration for half-maximal inhibition (IC50) in data set [11] of 350 nM.
